Measurements from patent US8329706B2, “Oxazolidinone derivatives” (Actelion Pharmaceuticals Ltd., priority 2009, dated 2012).

What was measured:
[1] = target: T1, human orexin-2 receptor (Homo sapiens, UniProt O43614); test: FLIPR intracellular calcium assay, orexin receptor antagonistic activity (OX2); type: cell-based; conditions: CHO cells expressing human orexin-2 receptor; agonist 3 nM orexin-A; normalized to on-plate reference; * geomean n = 5, *2 geomean n = 2
T1 construct: expressed in transfected cells; host or cells: CHO cells (G418 selection)
T1 sequence (O43614 1-444): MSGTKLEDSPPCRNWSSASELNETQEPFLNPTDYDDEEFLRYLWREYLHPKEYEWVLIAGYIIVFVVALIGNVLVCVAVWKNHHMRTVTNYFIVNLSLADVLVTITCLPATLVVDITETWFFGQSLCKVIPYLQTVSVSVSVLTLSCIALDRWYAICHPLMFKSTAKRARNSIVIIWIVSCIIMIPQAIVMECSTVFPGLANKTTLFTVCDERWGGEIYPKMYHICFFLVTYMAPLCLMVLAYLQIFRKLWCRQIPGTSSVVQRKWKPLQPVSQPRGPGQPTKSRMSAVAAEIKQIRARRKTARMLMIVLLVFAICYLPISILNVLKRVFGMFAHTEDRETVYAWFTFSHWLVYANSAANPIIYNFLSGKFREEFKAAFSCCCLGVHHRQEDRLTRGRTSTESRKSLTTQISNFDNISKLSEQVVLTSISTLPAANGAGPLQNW
Procedure, shortened: (§1)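 CHO cells expressing human OX1 or OX2 receptor loaded with fluo-4 AM, then antagonist preincubated 10 min before 3 nM orexin-A. FLIPR peak calcium fluorescence compared with agonist-plus-vehicle response. IC50 normalized to an on-plate reference compound.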

[2] = target: T2, human orexin-1 receptor (Homo sapiens, UniProt O43613); test: FLIPR intracellular calcium assay, orexin receptor antagonistic activity (OX1); type: cell-based; conditions: CHO cells expressing human orexin-1 receptor; agonist 3 nM orexin-A; normalized to on-plate reference; * geomean n = 5, *2 geomean n = 2
T2 construct: expressed in transfected cells; host or cells: CHO cells (G418 selection)
T2 sequence (O43613 1-425): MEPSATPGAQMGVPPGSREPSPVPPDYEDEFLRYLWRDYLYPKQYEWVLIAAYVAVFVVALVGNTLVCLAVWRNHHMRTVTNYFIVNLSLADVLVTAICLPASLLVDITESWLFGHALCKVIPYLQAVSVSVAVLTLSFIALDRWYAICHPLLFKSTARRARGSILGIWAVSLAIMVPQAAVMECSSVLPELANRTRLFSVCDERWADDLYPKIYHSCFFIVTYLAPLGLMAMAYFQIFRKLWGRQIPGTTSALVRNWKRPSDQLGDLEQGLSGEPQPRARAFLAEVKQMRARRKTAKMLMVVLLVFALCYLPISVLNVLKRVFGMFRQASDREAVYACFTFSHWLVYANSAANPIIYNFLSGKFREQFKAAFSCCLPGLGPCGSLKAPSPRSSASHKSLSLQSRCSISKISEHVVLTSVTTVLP
Procedure, shortened: as §1

[3] = system: rat; conditions: rat model; cited from earlier work
[4] = system: rat; conditions: cited from earlier work
[5] = system: rat; conditions: cited from earlier work; remark: listed apart in the source

| Compound | IC50 [1] | IC50 [2] | memory function [3] | activity in model of post-traumatic stress disorder [4] | alertness (active wake and locomotion) [5] | time spent in REM and NREM sleep [5] |
| --- | --- | --- | --- | --- | --- | --- |
| CCOc1ccccc1C1OCC(=O)N1Cc1ccc(Cl)c(Cl)c1 (stereo not shown) [Example 29, 3-(3,4-Dichloro-benzyl)-2-(2-ethoxy-phenyl)-oxazolidin-4-one] | 0.696 µM | > 10 µM | – | – | – | – |
| CCOc1ccccc1C1OCC(=O)N1Cc1cc(C(F)(F)F)cc(Cl)c1F (stereo not shown) [Example 10, 3-(3-Chloro-2-fluoro-5-trifluoromethyl-benzyl)-2-(2-ethoxy-phenyl)-oxazolidin-4-one] | 0.693 µM | 8.41 µM | – | – | – | – |
| CCOc1ccccc1C1OCC(=O)N1Cc1cccc(C)c1 (stereo not shown) [Example 24, 2-(2-Ethoxy-phenyl)-3-(3-methyl-benzyl)-oxazolidin-4-one] | 0.363 µM | > 10 µM | – | – | – | – |
| COc1cccc(OC)c1C1OCC(=O)N1Cc1c(C)cc(C)cc1C (stereo not shown) [Example 41, 2-(2,6-Dimethoxy-phenyl)-3-(2,4,6-trimethyl-benzyl)-oxazolidin-4-one] | 0.681 µM | 0.542 µM | – | – | – | – |
| CNC(=O)[C@@H](c1ccccc1)N1CCc2cc(OC)c(OC)cc2[C@@H]1CCc1ccc(C(F)(F)F)cc1 [(2R)-2-{(1S)-6,7-dimethoxy-1-[2-(4-trifluoromethyl-phenyl)-ethyl]-3,4-dihydro-1H-isoquinolin-2-yl}-N-methyl-2-phenyl-acetamide] | – | – | enhance memory function | active | decrease alertness | dose-dependently increase the time spent in both REM and NREM sleep |
| CCOc1ccccc1C1OCC(=O)N1Cc1ccc(F)c(C)c1 (stereo not shown) [Example 8, 2-(2-Ethoxy-phenyl)-3-(4-fluoro-3-methyl-benzyl)-oxazolidin-4-one] | 0.584 µM | 9.17 µM | – | – | – | – |
| COc1ccc(CN2C(=O)C(C)(C)OC2c2c(OC)cccc2OC)cc1 (stereo not shown) [Example 72, 2-(2,6-Dimethoxy-phenyl)-3-(4-methoxy-benzyl)-5,5-dimethyl-oxazolidin-4-one] | 2.27 µM | 0.188 µM | – | – | – | – |
| COc1cccc(OC)c1C1OC(C)(C)C(=O)N1Cc1ccc(OC(F)(F)F)c(F)c1 (stereo not shown) [Example 67, 2-(2,6-Dimethoxy-phenyl)-3-(3-fluoro-4-trifluoromethoxy-benzyl)-5,5-dimethyl-oxazolidin-4-one] | 0.322 µM | 0.025 µM | – | – | – | – |
| COc1cccc(OC)c1C1OCC(=O)N1Cc1cc(C(F)(F)F)cc(Cl)c1F (stereo not shown) [Example 37, 3-(3-Chloro-2-fluoro-5-trifluoromethyl-benzyl)-2-(2,6-dimethoxy-phenyl)-oxazolidin-4-one] | 0.477 µM | 0.162 µM | – | – | – | – |
| COc1cccc(OC)c1C1OC(C)(C)C(=O)N1Cc1ccc2c(c1)OCO2 (stereo not shown) [Example 71, 3-Benzo[1,3]dioxol-5-ylmethyl-2-(2,6-dimethoxy-phenyl)-5,5-dimethyl-oxazolidin-4-one] | 1.66 µM | 0.15 µM | – | – | – | – |

Second part, led by results:

| IC50 [1] | IC50 [2] | Compound | memory function [3] | activity in model of post-traumatic stress disorder [4] | alertness (active wake and locomotion) [5] | time spent in REM and NREM sleep [5] |
| --- | --- | --- | --- | --- | --- | --- |
| 0.025 µM | 0.22 µM | COc1cccc(OC)c1C1O[C@H](C)C(=O)N1Cc1ccc(Oc2ccccc2)cc1 (stereo partly drawn) [Example 51, 2-(2,6-Dimethoxy-phenyl)-(R)-5-methyl-3-(4-phenoxy-benzyl)-oxazolidin-4-one] | – | – | – | – |
| 0.086 µM | 0.581 µM | CCCOc1ccc(CN2C(=O)[C@@H](C)OC2c2c(OC)cccc2OC)cc1 (stereo partly drawn) [Example 73, 2-(2,6-Dimethoxy-phenyl)-(R)-5-methyl-3-(4-propoxy-benzyl)-oxazolidin-4-one] | – | – | – | – |
| 0.062 µM | 0.025 µM | CCOc1cccc(OC)c1C1OC(C)(C)C(=O)N1Cc1ccc(Oc2ccccc2)cc1 (stereo not shown) [Example 97, 2-(2-Ethoxy-6-methoxy-phenyl)-5,5-dimethyl-3-(4-phenoxy-benzyl)-oxazolidin-4-one] | – | – | – | – |
| 0.113 µM | 2.99 µM | COc1cccc(OC)c1C1OCC(=O)N1Cc1ccc(OC(F)F)cc1 (stereo not shown) [Example 49, 3-(4-Difluoromethoxy-benzyl)-2-(2,6-dimethoxy-phenyl)-oxazolidin-4-one] | – | – | – | – |
| 0.159 µM | 3.24 µM | COc1cccc(OC)c1C1OCC(=O)N1Cc1ccc(OC(C)C)cc1 (stereo not shown) [Example 60, 2-(2,6-Dimethoxy-phenyl)-3-(4-isopropoxy-benzyl)-oxazolidin-4-one] | – | – | – | – |
| 0.041 µM | 0.726 µM | COc1cccc(OC)c1C1O[C@H](C)C(=O)N1Cc1ccc(OC(F)F)cc1 (stereo partly drawn) [Example 52, 3-(4-Difluoromethoxy-benzyl)-2-(2,6-dimethoxy-phenyl)-(R)-5-methyl-oxazolidin-4-one] | – | – | – | – |
